For data set [1], the target named is GTPase KRas (Homo sapiens, UniProt P01116, G12C). The data set is described as follows: Inhibition of biotinylated Avi-tagged GDP-bound KRAS G12C mutant (1 to 185 residues) (unknown origin) assessed as inhibition of KRAS G12C mutant/SOS/GST-tagged c-Raf complex formation incubated for 1 hr and measured by fluorescence based assay.
Data set [2] can be described thus: Downregulation of pERK levels in human NCI-H1373 cells measured after 2 hrs by EISA. Type of data set: functional, cell-based. The note with it: NCI-H1373, 2 h.
Data set [3] can be described thus: Downregulation of pERK levels in human A-375 cells measured after 2 hrs by EISA. Type of data set: functional, cell-based. The note with it: A-375, 2 h.
The subject of data set [4] is NCI-H1373. The data set is described as follows: Growth inhibition of human NCI-H1373 cells assessed as cell viability after 6 days by CellTiter-Glo assay. Type of data set: functional, cell-based. The following applies: NCI-H1373, 144 h. Background: ATP-based viability assays read luminescence as a measure of living cells.
Data set [5] has as its system A-375. The data set is described as follows: Growth inhibition of human A-375 cells assessed as cell viability after 6 days by CellTiter-Glo assay. Type of data set: functional, cell-based. The following applies: A-375, 144 h.
A short description of data set [6]: Aqueous solubility of the compound in pH 6.8 JP2 fluid measured after 20 hrs by disintegration test. Type of data set: physicochemical.
A short description of data set [7]: Intrinsic clearance in human liver microsomes at 0.1 to 0.2 umol/L measured after 30 mins in presence of NADPH by LC-MS/MS analysis. The format is ADME, Microsome. The following applies: dose 0.1-0.2 µmol/L, read-out: CLH.
Data set [8] in a line: Intrinsic clearance in mouse liver microsomes at 0.1 to 0.2 umol/L measured after 30 mins in presence of NADPH by LC-MS/MS analysis. Type of data set: ADME, Microsome. The following applies: dose 0.1-0.2 µmol/L, read-out: CLH. (In general: Liver microsomes are vesicles of endoplasmic reticulum, rich in cytochrome P450 enzymes.)
Data set [9] is described as follows: Plasma concentration in nude mouse xenografted with human NCI-H1373 cells at 100 mg/kg, po administered as single dose and measured at 1 hr by LC/MS-MS analysis. The format is ADME, organism-based. On the technique in general: Xenograft models place foreign cells or tissue in a host animal.
Data set [10] can be described thus: Plasma concentration in nude mouse xenografted with human NCI-H1373 cells at 100 mg/kg, po administered as single dose and measured at 6 hr by LC/MS-MS analysis. Type of data set: ADME, organism-based.
Data set [11] is described as follows: Drug uptake in tumor of nude mouse xenografted with human NCI-H1373 cells at 100 mg/kg, po administered as single dose and measured at 6 hr by LC/MS-MS analysis. The format is ADME, organism-based, Neoplasm. The following applies: read-out: Drug uptake.
A short description of data set [12]: Plasma concentration in nude mouse xenografted with human NCI-H1373 cells at 30 mg/kg, sc administered as single dose and measured at 1 hr by LC/MS-MS analysis. The format is ADME, organism-based.
The nature of data set [13]: Plasma concentration in nude mouse xenografted with human NCI-H1373 cells at 30 mg/kg, sc administered as single dose and measured at 6 hr by LC/MS-MS analysis. The format is ADME, organism-based.
A short description of data set [14]: Drug uptake in tumor of nude mouse xenografted with human NCI-H1373 cells at 30 mg/kg, sc administered as single dose and measured at 6 hr by LC/MS-MS analysis. The format is ADME, organism-based, Neoplasm. The note with it: read-out: Drug uptake.
In data set [15] the test system is NCI-H1373. The experiment in a line: Antitumor activity against human NCI-H1373 cells xenografted in nude mouse assessed as inhibition of p-ERK levels at 33 mg/kg, sc administered as single dose and measured after 6 hrs. Type of data set: functional.
The subject of data set [16] is NCI-H1373. The experiment in a line: Antitumor activity against human NCI-H1373 cells xenografted in nude mouse assessed as tumor growth inhibition at 3 mg/kg, sc administered as single dose. The following applies: read-out: TGI. The format is functional.
Data set [17] has as its system NCI-H1373. The data set is described as follows: Antitumor activity against human NCI-H1373 cells xenografted in nude mouse assessed as tumor growth inhibition at 10 mg/kg, sc administered as single dose. The format is functional. The following applies: read-out: TGI.
The test system of data set [18] is NCI-H1373. The data set is described as follows: Antitumor activity against human NCI-H1373 cells xenografted in nude mouse assessed as tumor growth inhibition at 30 mg/kg, sc administered as single dose. The format is functional. The note with it: read-out: TGI.
Data set [19] is described as follows: Toxicity in nude mouse xenografted with human NCI-H1373 cells assessed as effect on body weight at 3 to 30 mg/kg, sc. The format is organism-based. The following applies: in vivo, dose 3-30 mg/kg.
Data set [20] relates to GTPase KRas (Homo sapiens), P01116 [G12C]. The data set is described as follows: Inhibition of biotinylated Avi-tagged GDP-bound KRAS G12C mutant (1 to 185 residues) (unknown origin) assessed as inhibition of KRAS G12C mutant/SOS/GST-tagged c-Raf complex formation at 3 uM incubated for 1 hr and measured by fluorescence based assay relative to control.

Bounds are passed on as bounds.

With `C=CC(=O)N1CC2(CCN(c3nc(SC4CCN(CC)CC4)nc4c(F)c(-c5c(C)ccc6[nH]ncc56)c(Cl)cc34)CC2)C1`, in [1], the concentration for half-maximal inhibition (IC50) turned out to be 940 nM.
Turning to `C=CC(=O)N1CC2(CCN(c3nc(NC4CCN(C)CC4)nc4c(F)c(-c5c(C)ccc6[nH]ncc56)c(Cl)cc34)C2)C1`, the IC50 was 160 nM in data set [1]; 550 nM in data set [2]; more than 10000 nM in [3]; 950 nM in [4]; 4000 nM in data set [5].
For `C=CC(=O)N1CC2(CCN(c3nc(OC4CCOCC4)nc4c(F)c(-c5c(C)ccc6[nH]ncc56)c(Cl)cc34)CC2)C1`, in [1], the IC50 was found to be 2100 nM.
In the case of `C=CC(=O)N1CC2(CCN(c3nc(OC4CCN(C)CC4)nc4c(F)c(-c5c(C)ccc6[nH]ncc56)c(Cl)cc34)CC2)C1`, the half-inhibitory concentration (IC50) is 70 nM in data set [1], 96 nM in data set [2], 100 nM in data set [4] and 2900 nM in [5]. This compound displayed a solubility at 20 h in data set [6] of more than 100 µM. The CLint scaled in data set [7] amounted to 35 mL/min/kg; in [8], 115 mL/min/kg.
Take `C=CC(=O)N1CC2(CCN(c3nc(OC4CCN(CC)CC4)nc4c(F)c(-c5c(C)ccc6[nH]ncc56)c(Cl)cc34)CC2)C1`: the IC50 in data set [1] amounted to 77 nM; in data set [2], 140 nM; in data set [4], 120 nM; in data set [5], 3500 nM. The compound also returned a solubility at 20 h in data set [6] of more than 100 µM. The CLint scaled in data set [7] came out at 37 mL/min/kg; in data set [8] it was 115 mL/min/kg. Moreover, the figures for the concentration at 1 h in data set [9] and in [12] were 670 nM and 3800 nM, respectively. Also, the concentration at 6 h in [10] amounted to 130 nM; in [11], 70 nM; in [13], 720 nM; in [14], 740 nM. Further, the inhibition in vivo at 33 mg/kg in data set [15] worked out at 63%. Also, in data set [16], the inhibition in vivo at 3 mg/kg amounted to 33%. For the same compound, the inhibition in vivo at 10 mg/kg in data set [17] stood at 50%. Moreover, in data set [18], the inhibition in vivo at 30 mg/kg came out at 92%. The Activity entry in [19] was “Non-Toxic”.
With `C=CC(=O)N1CCN(c2nc(NC3CCN(C)CC3)nc3c(F)c(-c4c(C)ccc5[nH]ncc45)c(Cl)cc23)CC1`, the concentration for half-maximal inhibition (IC50) is 470 nM in data set [1]; 430 nM in [2]; more than 10000 nM in [3]; 650 nM in data set [4]; 1100 nM in [5].
For `C=CC(=O)N1CC2(CCN(c3nc(OCCCN4CCCCC4)nc4c(F)c(-c5c(C)ccc6[nH]ncc56)c(Cl)cc34)CC2)C1`, in data set [1], the IC50 is 370 nM.
The same measure, in the same setting: then `C=CC(=O)N1CC2(CCN(c3nc(OCCCN(C)C)nc4c(F)c(-c5c(C)ccc6[nH]ncc56)c(Cl)cc34)CC2)C1`, with 260 nM.
Still for that read-out and setting: as for `C=CC(=O)N1CC2(CCN(c3nc(OCC4CCN(C)CC4)nc4c(F)c(-c5c(C)ccc6[nH]ncc56)c(Cl)cc34)CC2)C1`, the figure is 130 nM.
The same measure, in the same setting: then `C=CC(=O)N1CC2(CCN(c3nc(OCCN(C)C)nc4c(F)c(-c5c(C)ccc6[nH]ncc56)c(Cl)cc34)CC2)C1`, with 340 nM; and `C=CC(=O)N1CC2(CCN(c3nc(OCCCN4CCOCC4)nc4c(F)c(-c5c(C)ccc6[nH]ncc56)c(Cl)cc34)CC2)C1`, with 650 nM.
On to `C=CC(=O)N1CCC2(C1)CN(c1nc(NC3CCN(C)CC3)nc3c(F)c(-c4c(C)ccc5[nH]ncc45)c(Cl)cc13)C2`, for which the 50% inhibitory concentration (IC50) in [1] was determined as 18000 nM.
Turning to `C=CC(=O)N1CC2(CCN(c3nc(OC4(CN(C)C)CCC4)nc4c(F)c(-c5c(C)ccc6[nH]ncc56)c(Cl)cc34)CC2)C1`, in [1], the IC50 came to 770 nM.
In the case of `C=CC(=O)N1CC2(C1)CN(c1nc(NC3CCN(C)CC3)nc3c(F)c(-c4c(C)ccc5[nH]ncc45)c(Cl)cc13)C2`, the concentration for half-maximal inhibition (IC50) in data set [1] worked out at 3000 nM. The inhibition in [20] came out at 60%.
Consider `C=CC(=O)N1CC2(CCN(c3nc(N(C)C4CCN(CC)CC4)nc4c(F)c(-c5c(C)ccc6[nH]ncc56)c(Cl)cc34)CC2)C1`, for which the IC50 in data set [1] was 3200 nM.
The same measure, in the same setting: as for `CCN1CCC(Oc2nc(N3CCC4(CC3)CN(C(=O)/C=C/CN3CCOCC3)C4)c3cc(Cl)c(-c4c(C)ccc5[nH]ncc45)c(F)c3n2)CC1`, the figure is more than 10000 nM; as for `C=CC(=O)N1CCC2(CC1)CN(c1nc(NC3CCN(C)CC3)nc3c(F)c(-c4c(C)ccc5[nH]ncc45)c(Cl)cc13)C2`, more than 30000 nM.
For `C=CC(=O)N1CC2(CCN(c3nc(NC4CCN(C)CC4)nc4c(F)c(-c5c(C)ccc6[nH]ncc56)c(Cl)cc34)CC2)C1`, the 50% inhibitory concentration (IC50) in data set [1] is 350 nM; in [2] it was 380 nM; in [3], more than 10000 nM; in data set [4] it was 390 nM; in data set [5], 2800 nM.

For orientation: IC50 means the concentration that inhibits the measured activity by half. By solubility is commonly meant the dissolved amount per volume that the medium holds. The low end stands for little dissolved substance, the high end for much dissolved substance. In general, inhibition refers to how much of the control response was suppressed.

Source of the values: ChEMBL document CHEMBL5107997, “Discovery and biological evaluation of 1-{2,7-diazaspiro[3.5]nonan-2-yl}prop-2-en-1-one derivatives as covalent inhibitors of KRAS G12C with favorable metabolic stability and anti-tumor activity” (Bioorg Med Chem, 2022).
